Biological target: T1, recombinant autotaxin (Homo sapiens, UniProt Q13822)
T1 construct: made in house; host or cells: Hi5 insect cells (baculovirus)
Assay: Autotaxin assay (Amplex Red fluorescence, LPC substrate)
Type: biochemical
Details: for IC50: ten serial 1:3 dilutions starting at 30 μM, duplicates, 75 μM LPC, values given as upper bounds; for % CTRL (1E−05): percent of uninhibited control (100%) at 1E−05 M compound
Description: Autotaxin activity is measured indirectly by means of Amplex Red Reagent. In this course, Amplex Red is measured as fluorogenic indicator for generated H2O2. Autotaxin converts substrate lysophosphatidylcholine (LPC) to phosphocholine and lysophosphatidylic acid (LPA). After the conversion phosphocholine is reacted with alkaline phosphatase to obtain inorganic phosphate and choline. During the next step choline is oxidized with choline oxidase to yield betaine, whereby H2O2 is generated. H2O2 reacts with Amplex Red Reagent in the presence of peroxidase (Horseradish peroxidase) in an 1:1 stochiometry and yields highly fluorescent resorufin. The generated fluorescence is measured in a reaction-dependent kinetic mode in order to enable subtraction of fluorescence signals of possible other fluorescent compounds that are not part of the reaction from total measured fluorescence.
1.5 μl of a standard solution or of the compounds of the invention are dissolved in 20 mM Hepes pH 7.2 with maximally 7.7% DMSO in individual concentrations. The resulting solution is pre-incubated together with 10 μl (16 ng) of highly purified recombinant autotaxin in a black 384-hole microtiter plate for 30 min at 22° C.
Thereafter, the reaction is started through the addition of 5 μl L-a-lysophosphatidyl-choline (LPC), whereby the final concentration of LPC is 75 μM. The mixture is incubated for 90 min. at 37° C. After the incubation Amplex Red Reagent, peroxidase (Horseradish peroxidase) and choline oxidase are added. The fluorescence is immediately measured at a wavelength of 612 nm with an excitation wavelength of 485 nm in a “Tecan Ultra multimode” fluorescence reader. The activity of autotaxin is indirectly calculated via the amount of detected generated H2O2.
For IC50 analysis, ten serial 1:3 dilutions starting at 30 μM for each compound were run in duplicates.
IC50 values were calculated on normalized data. For normalization, control wells were added to each assay plate and the signal of uninhibited control wells was set to 100%, whereas the signal inhibited by 500 μM C14 LPA, (Avanti Polar Lipids, Cat#857120P) was set to 0%. Curves were fitted and IC50 values calculated by the following model using proprietory analysis software: Y=Bottom+(100−Bottom)/(1+10^((Log IC50−X)*HillSlope))
Where X is the logarithm of concentration. Y is the response;
Y starts at Bottom and goes to Top with a sigmoid shape.
Protein: Recombinant autotaxin (baculoviral Hi5 expression)
Substrate: L-a-lysophosphatidyl choline (chicken egg); Avanti Polar Lipids #830071P
Standard: C14 LPA, Avanti Polar Lipids, Cat#857120P
Detection Reagent Amplex Red Reagent; Invitrogen #A12222; dissolved in 1.923 ml of DMSO peroxidase Type VI-A (horseradish), Sigma #P6782; dissolved in 7.45 ml of test buffer, Choline Oxidase; Sigma #C5896; dissolved in 2.47 ml test buffer
Detection Reagent Mix: 1:100 dilution of Amplex Red Regent in test buffer
Test buffer: 200 mM Tris-HCl, Merck, Cat #1.08219, pH 7.9; 0.1% BSA, lipid free, Roche Cat#775835

| Structure (SMILES) | IC50 [µM] | % CTRL (1E−05) [%] |
| --- | --- | --- |
| COC(=O)c1c(NC(=O)Nc2ccc(Cl)cc2)sc2c1CCN(C(=O)c1ccc3[nH]nnc3c1)C2 [Compound 25, 6-(1H-Benzotriazole-5-carbonyl)-2-[3-(4-chloro-phenyl)-ureido]-4,5,6,7-tetrahydro-thieno[2,3-c]pyridine-3-carboxylic acid methyl ester] | < 30 | – |
| O=C(Nc1ccc(C(F)(F)F)cc1)Nc1nc2ccc(C(=O)Nc3ccc4[nH]c(=O)oc4c3)cc2s1 [Compound 30, 2-[3-(4-Trifluoromethyl-phenyl)-ureido]-benzothiazole-6-carboxylic acid (2-oxo-2,3-dihydro-benzooxazol-6-yl)-amide] | – | 93 |
| O=C(Nc1ccc(Cl)cc1)Nc1nc2ccc(C(=O)Nc3ccc4[nH]c(=O)oc4c3)cc2s1 [Compound 31, 2-[3-(4-Chloro-phenyl)-ureido]-benzothiazole-6-carboxylic acid (2-oxo-2,3-dihydro-benzooxazol-6-yl)-amide] | – | 94 |
| O=C(NCc1ccc(Cl)cc1)c1[nH]nc2c1CCN(C(=O)c1ccc3[nH]nnc3c1)C2 [Compound 34, 6-(1H-Benzotriazole-5-carbonyl)-4,5,6,7-tetrahydro-2H-pyrazolo[3,4-c]pyridine-3-carboxylic acid 4-chloro-benzylamide] | < 10 | – |
| O=C(NCc1cc(Cl)ccc1Cl)c1[nH]nc2c1CCN(C(=O)c1ccc3[nH]nnc3c1)C2 [Compound 38, 6-(1H-Benzotriazole-5-carbonyl)-4,5,6,7-tetrahydro-2H-pyrazolo[3,4-c]pyridine-3-carboxylic acid 2,5-dichloro-benzylamide] | < 10 | – |
| COc1ccccc1CNC(=O)c1[nH]nc2c1CCN(C(=O)c1ccc3[nH]nnc3c1)C2 [Compound 41, 6-(1H-Benzotriazole-5-carbonyl)-4,5,6,7-tetrahydro-2H-pyrazolo[3,4-c]pyridine-3-carboxylic acid 2-methoxy-benzylamide] | – | 66 |
| O=C(NCCc1ccc([N+](=O)[O-])cc1)c1[nH]nc2c1CCN(C(=O)c1ccc3[nH]nnc3c1)C2 [Compound 43, 6-(1H-Benzotriazole-5-carbonyl)-4,5,6,7-tetrahydro-2H-pyrazolo[3,4-c]pyridine-3-carboxylic acid [2-(4-nitro-phenyl)-ethyl]-amide] | < 10 | – |
| O=C(NCCc1ccc(Br)cc1)c1[nH]nc2c1CCN(C(=O)c1ccc3[nH]nnc3c1)C2 [Compound 44, 6-(1H-Benzotriazole-5-carbonyl)-4,5,6,7-tetrahydro-2H-pyrazolo[3,4-c]pyridine-3-carboxylic acid [2-(4-bromo-phenyl)-ethyl]-amide] | < 10 | – |
| COc1ccc(Cl)cc1CNC(=O)c1[nH]nc2c1CCN(C(=O)c1ccc3[nH]nnc3c1)C2 [Compound 45, 6-(1H-Benzotriazole-5-carbonyl)-4,5,6,7-tetrahydro-2H-pyrazolo[3,4-c]pyridine-3-carboxylic acid 5-chloro-2-methoxy-benzylamide] | < 10 | – |

Further lines, results first:

| IC50 [µM] | % CTRL (1E−05) [%] | Structure (SMILES) |
| --- | --- | --- |
| < 10 | – | NC(=O)c1c(NC(=O)Cc2ccc(Cl)cc2F)sc2c1CCN(C(=O)CCc1ccccn1)C2 [Compound 24, 2-[2-(4-Chloro-2-fluoro-phenyl)-acetylamino]-6-(3-pyridin-2-yl-propionyl)-4,5,6,7-tetrahydro-thieno[2,3-c]pyridine-3-carboxylic acid amide] |
| < 10 | – | COC(=O)c1c(NC(=O)Nc2ccc(Cl)cc2)sc2c1CCN(C(=O)c1ccc3[nH]c(=O)oc3c1)C2 [Compound 26, 2-[3-(4-Chloro-phenyl)-ureido]-6-(2-oxo-2,3-dihydro-benzooxazole-6-carbonyl)-4,5,6,7-tetrahydro-thieno[2,3-c]pyridine-3-carboxylic acid methyl ester] |
| – | 52 | O=C(Nc1ccc(Cl)cc1)Nc1sc2c(c1C(=O)N1CCCC1)CCN(C(=O)c1ccc3[nH]nnc3c1)C2 [Compound 27, 1-[6-(1H-Benzotriazole-5-carbonyl)-3-(pyrrolidine-1-carbonyl)-4,5,6,7-tetrahydro-thieno[2,3-c]pyridin-2-yl]-3-(4-chloro-phenyl)-urea] |
| < 30 | – | NC(=O)c1c(NC(=O)Nc2ccc(Cl)cc2)[nH]c2cc(C(=O)Nc3ccc4[nH]c(=O)oc4c3)ccc12 [Compound 28, 2-[3-(4-Chloro-phenyl)-ureido]-1H-indole-3,6-dicarboxylic acid 3-amide 6-[(2-oxo-2,3-dihydro-benzooxazol-6-yl)-amide]] |
| < 10 | – | O=C(Cc1ccc(Cl)cc1F)Nc1nc2ccc(C(=O)Nc3ccc4[nH]c(=O)oc4c3)cc2s1 [Compound 29, 2-[2-(4-Chloro-2-fluoro-phenyl)-acetylamino]-benzothiazole-6-carboxylic acid (2-oxo-2,3-dihydro-benzooxazol-6-yl)-amide] |
| – | 64 | O=C(Nc1ccc(C(F)(F)F)cc1)Nc1nc2ccc(C(=O)Nc3ccc4[nH]nnc4c3)cc2s1 [Compound 32, 2-[3-(4-Trifluoromethyl-phenyl)-ureido]-benzothiazole-6-carboxylic acid (1H-benzotriazol-5-yl)-amide] |
| < 10 | – | O=C(NCc1cc(Cl)cc(Cl)c1)c1[nH]nc2c1CCN(C(=O)c1ccc3[nH]nnc3c1)C2 [Compound 33, 6-(1H-Benzotriazole-5-carbonyl)-4,5,6,7-tetrahydro-2H-pyrazolo[3,4-c]pyridine-3-carboxylic acid 3,5-dichloro-benzylamide] |
| < 10 | – | CC(CNC(=O)c1[nH]nc2c1CCN(C(=O)c1ccc3[nH]nnc3c1)C2)c1ccc(Cl)cc1 (stereo not shown) [Compound 35, 6-(1H-Benzotriazole-5-carbonyl)-4,5,6,7-tetrahydro-2H-pyrazolo[3,4-c]pyridine-3-carboxylic acid [2-(4-chloro-phenyl)-propyl]-amide] |
| < 30 | – | O=C(NCc1cc(C(F)(F)F)ccc1F)c1[nH]nc2c1CCN(C(=O)c1ccc3[nH]nnc3c1)C2 [Compound 36, 6-(1H-Benzotriazole-5-carbonyl)-4,5,6,7-tetrahydro-2H-pyrazolo[3,4-c]pyridine-3-carboxylic acid 2-fluoro-5-trifluoromethyl-benzylamide] |
| < 10 | – | O=C(NCCc1ccc(Cl)c(Cl)c1)c1[nH]nc2c1CCN(C(=O)c1ccc3[nH]nnc3c1)C2 [Compound 37, 6-(1H-Benzotriazole-5-carbonyl)-4,5,6,7-tetrahydro-2H-pyrazolo[3,4-c]pyridine-3-carboxylic acid [2-(3,4-dichloro-phenyl)-ethyl]-amide] |
| < 1 | – | O=C(NCCc1ccc(Cl)cc1)c1[nH]nc2c1CCN(C(=O)c1ccc3[nH]nnc3c1)C2 [Compound 39, 6-(1H-Benzotriazole-5-carbonyl)-4,5,6,7-tetrahydro-2H-pyrazolo[3,4-c]pyridine-3-carboxylic acid [2-(4-chloro-phenyl)-ethyl]-amide] |
| – | 73 | O=C(NC(CO)Cc1ccc(Cl)cc1)c1[nH]nc2c1CCN(C(=O)c1ccc3[nH]nnc3c1)C2 (stereo not shown) [Compound 40, 6-(1H-Benzotriazole-5-carbonyl)-4,5,6,7-tetrahydro-2H-pyrazolo[3,4-c]pyridine-3-carboxylic acid [2-(4-chloro-phenyl)-1-hydroxymethyl-ethyl]-amide] |
| < 30 | – | O=C(NCCc1cccc(Cl)c1)c1[nH]nc2c1CCN(C(=O)c1ccc3[nH]nnc3c1)C2 [Compound 42, 6-(1H-Benzotriazole-5-carbonyl)-4,5,6,7-tetrahydro-2H-pyrazolo[3,4-c]pyridine-3-carboxylic acid [2-(3-chloro-phenyl)-ethyl]-amide] |
